# Literature values as cited in patent publication US9968093B1, “Development and manufacturing process of powdered additive for its use in coatings or substrates to repel, reduce and control insects” (priority 2016, dated 2018).
# Entries after “also recorded” stand apart in the source; their conditions may differ. Like-named read-outs stand apart in the source and are kept apart here.
# How the values were obtained:
# [1] = for Toxicity: toxicity in words
# [2] = for Time to decompose (Mean life): aqueous medium; for Stability in aqueous medium, in words: pH as stated in the value
smiles,measurement,setting,value
CCOP(=S)(OCC)Oc1ccc2c(C)c(Cl)c(=O)oc2c1 [Coumaphos],Toxicity,[1],Toxic
C=CCC1=C(C)C(OC(=O)C2C(C=C(C)C)C2(C)C)CC1=O [D-allethrin],Time to decompose (Mean life),[2]; pH 7,500 days
same,Time to decompose (Mean life),[2]; pH 9,(4.3 days)
same,"Stability in aqueous medium, in words",[2],Stable at pH 5 after 31 days
CCOC(=O)CC(SP(=S)(OC)OC)C(=O)OCC (stereo not shown) [Malathion],"Stability in aqueous medium, in words",[2],Quickly hydrolyzed at pHs over 7. The optimal pH
OB(O)O [Boric acid],Toxicity (group),[1],Group II
same,Toxicity,[1],Mildly toxic
CC(COc1ccc(Oc2ccccc2)cc1)Oc1ccccn1 (stereo not shown) [Pyriproxyfen],"Stability in aqueous medium, in words",[2],Stable in a pH range between 4 and 9.
CC1(C)[C@H](C(=O)O[C@H](C#N)c2cccc(Oc3ccccc3)c2)[C@@H]1C=C(Br)Br [Deltamethrin],Time to decompose (Mean life),[2]; pH 7,0.33 days
same,"Stability in aqueous medium, in words",[2],more stable in medium acid solutions
CCN(CC)c1nc(C)cc(OP(=S)(OC)OC)n1 [Methyl pirimiphos],Time to decompose (Mean life),[2]; pH 5,7 days
same,Time to decompose (Mean life),[2]; pH 8,5 days
CCOP(=S)(OCC)Oc1nc(Cl)c(Cl)cc1Cl [Chlorpyrifos],Time to decompose (Mean life),[2]; pH 10,7 days
same,"Stability in aqueous medium, in words",[2],stable in neutral and lightly
CCOP(=S)(OCC)Oc1cc(C)nc(C(C)C)n1 [Diazinon],Time to decompose (Mean life),[2]; pH 5,31 days
same,Time to decompose (Mean life),[2]; pH 7.5,185 days
same,Time to decompose (Mean life),[2]; pH 9,136 days
CNC(=O)Oc1cccc2c1OC(C)(C)C2 [Carbofuran],Toxicity (group),[1],Group II
same,Toxicity,[1],Mildly toxic
CC1(C)C(C=C(Cl)Cl)C1C(=O)OC(C#N)c1cccc(Oc2ccccc2)c1 (stereo not shown) [Cypermethrin],Time to decompose (Mean life),[2]; pH 9,7 days
CC1(C)C(C=C(Cl)Cl)C1C(=O)OCc1cccc(Oc2ccccc2)c1 (stereo not shown) [Permethrin],"Stability in aqueous medium, in words",[2],Stable at pH between 5 and 6.
O=C(NC(=O)c1c(F)cccc1F)Nc1ccc(Cl)cc1 [Diflubenzuron],"Stability in aqueous medium, in words",[2],Stable in pH between 5 and 7; also recorded: Hydrolyzed at pH 9
